Results: PubChem BioAssay (NCI)
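Dose response: 5 concentrations. Exposure: 48 h. Format: 96-well plates. Endpoint: linear interpolation; highest concentration if not reached. TGI: concentration producing complete growth inhibition.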

How the values were obtained:
Assay in all cases: DTP human tumour cell line panel, 48 h
MDA-MB-231 breast = test system: MDA-MB-231 breast
HL-60(TB) leukemia = test system: HL-60(TB) leukemia
OVCAR-8 ovarian = test system: OVCAR-8 ovarian
NCI-H460 lung = test system: NCI-H460 lung
MDA-MB-435 = test system: MDA-MB-435
COLO 205 colon = test system: COLO 205 colon
SNB-19 CNS = test system: SNB-19 CNS
RPMI-8226 leukemia = test system: RPMI-8226 leukemia
SK-OV-3 ovarian = test system: SK-OV-3 ovarian
SF-268 CNS = test system: SF-268 CNS
UO-31 renal = test system: UO-31 renal
UACC-257 melanoma = test system: UACC-257 melanoma
UACC-62 melanoma = test system: UACC-62 melanoma
MOLT-4 leukemia = test system: MOLT-4 leukemia
MCF7 breast = test system: MCF7 breast
U251 CNS = test system: U251 CNS
CAKI-1 renal = test system: CAKI-1 renal
PC-3 prostate = test system: PC-3 prostate
NCI-H23 lung = test system: NCI-H23 lung
M14 melanoma = test system: M14 melanoma
A549 NSCLC = test system: A549 NSCLC
SK-MEL-5 melanoma = test system: SK-MEL-5 melanoma
SF-295 CNS = test system: SF-295 CNS
HT29 colon = test system: HT29 colon
LOX IMVI melanoma = test system: LOX IMVI melanoma
OVCAR-5 ovarian = test system: OVCAR-5 ovarian
SN12C renal = test system: SN12C renal
IGROV1 ovarian = test system: IGROV1 ovarian
NCI-H522 lung = test system: NCI-H522 lung
HOP-92 NSCLC = test system: HOP-92 NSCLC
HS 578T breast = test system: HS 578T breast
TK-10 renal = test system: TK-10 renal
SNB-75 CNS = test system: SNB-75 CNS
HCT-116 colon = test system: HCT-116 colon
NCI-H226 lung = test system: NCI-H226 lung
KM12 colon = test system: KM12 colon
OVCAR-3 ovarian = test system: OVCAR-3 ovarian
T-47D breast = test system: T-47D breast
ACHN renal = test system: ACHN renal
786-0 renal = test system: 786-0 renal
SK-MEL-28 melanoma = test system: SK-MEL-28 melanoma
OVCAR-4 ovarian = test system: OVCAR-4 ovarian
HCT-15 colon = test system: HCT-15 colon
SW-620 colon = test system: SW-620 colon
EKVX NSCLC = test system: EKVX NSCLC
SF-539 CNS = test system: SF-539 CNS
NCI/ADR-RES ovarian = test system: NCI/ADR-RES ovarian
DU-145 prostate = test system: DU-145 prostate
CCRF-CEM leukemia = test system: CCRF-CEM leukemia
MDA-N = test system: MDA-N
HCC-2998 colon = test system: HCC-2998 colon
K-562 leukemia = test system: K-562 leukemia
SK-MEL-2 melanoma = test system: SK-MEL-2 melanoma
HOP-62 NSCLC = test system: HOP-62 NSCLC
MALME-3M melanoma = test system: MALME-3M melanoma
RXF 393 renal = test system: RXF 393 renal
A498 renal = test system: A498 renal
SR leukemia = test system: SR leukemia

Molecule COc1ccc(NC(=S)c2ccoc2C)cc1CC(=O)OC(C)C has a TGI (MDA-MB-231 breast) of over 100 µM, a TGI (HL-60(TB) leukemia) of 54.5 µM and a TGI (OVCAR-8 ovarian) of over 100 µM. The TGI (NCI-H460 lung) was over 100 µM, the TGI (MDA-MB-435) was over 100 µM and the TGI (COLO 205 colon) was 36.7 µM. It also gave a TGI (SNB-19 CNS) of over 100 µM, a TGI (RPMI-8226 leukemia) of over 100 µM and a TGI (SK-OV-3 ovarian) of over 100 µM. It also gave a TGI (SF-268 CNS) of over 100 µM, a TGI (UO-31 renal) of over 100 µM and a TGI (UACC-257 melanoma) of over 100 µM. For the same molecule, the TGI (UACC-62 melanoma) was over 100 µM, the TGI (MOLT-4 leukemia) was 80.4 µM and the TGI (MCF7 breast) was 51.5 µM. The TGI (U251 CNS) was over 100 µM, the TGI (CAKI-1 renal) was over 100 µM and the TGI (PC-3 prostate) was 62.3 µM. It also gave a TGI (NCI-H23 lung) of over 100 µM, a TGI (M14 melanoma) of 64.3 µM and a TGI (A549 NSCLC) of over 100 µM. The TGI (SK-MEL-5 melanoma) was over 100 µM, the TGI (SF-295 CNS) was over 100 µM and the TGI (HT29 colon) was 36.3 µM. It also gave a TGI (LOX IMVI melanoma) of 39.2 µM, a TGI (OVCAR-5 ovarian) of over 100 µM and a TGI (SN12C renal) of over 100 µM. The TGI (IGROV1 ovarian) was over 100 µM, the TGI (NCI-H522 lung) was over 100 µM and the TGI (HOP-92 NSCLC) was 67.9 µM. The TGI (HS 578T breast) was over 100 µM, the TGI (TK-10 renal) was over 100 µM and the TGI (SNB-75 CNS) was 93.9 µM. It also gave a TGI (HCT-116 colon) of over 100 µM, a TGI (NCI-H226 lung) of 68 µM and a TGI (KM12 colon) of over 100 µM. It also gave a TGI (OVCAR-3 ovarian) of over 100 µM, a TGI (T-47D breast) of over 100 µM and a TGI (ACHN renal) of over 100 µM. It also gave a TGI (786-0 renal) of over 100 µM, a TGI (SK-MEL-28 melanoma) of over 100 µM and a TGI (OVCAR-4 ovarian) of over 100 µM. The TGI (HCT-15 colon) was over 100 µM, the TGI (SW-620 colon) was over 100 µM and the TGI (EKVX NSCLC) was over 100 µM. It also gave a TGI (SF-539 CNS) of over 100 µM, a TGI (NCI/ADR-RES ovarian) of 58.7 µM and a TGI (DU-145 prostate) of over 100 µM. For the same molecule, the TGI (CCRF-CEM leukemia) was over 100 µM, the TGI (MDA-N) was over 100 µM and the TGI (HCC-2998 colon) was over 100 µM. It also gave a TGI (K-562 leukemia) of over 100 µM and a TGI (SK-MEL-2 melanoma) of 40.6 µM.
In the case of O=c1cc(-c2ccccc2)[nH]c2nccn12, the TGI (HOP-62 NSCLC) is reported as over 10 µM, the TGI (MDA-MB-231 breast) is reported as over 10 µM and the TGI (HL-60(TB) leukemia) is reported as over 10 µM. For the same molecule, the TGI (OVCAR-8 ovarian) was over 10 µM, the TGI (NCI-H460 lung) was over 10 µM and the TGI (MDA-MB-435) was over 10 µM. The TGI (COLO 205 colon) was over 10 µM, the TGI (SNB-19 CNS) was over 10 µM and the TGI (MALME-3M melanoma) was over 10 µM. The TGI (RPMI-8226 leukemia) was over 10 µM, the TGI (SK-OV-3 ovarian) was over 10 µM and the TGI (SF-268 CNS) was over 10 µM. The TGI (UO-31 renal) was over 10 µM, the TGI (UACC-62 melanoma) was over 10 µM and the TGI (MOLT-4 leukemia) was over 10 µM. The TGI (MCF7 breast) was over 10 µM, the TGI (U251 CNS) was over 10 µM and the TGI (CAKI-1 renal) was over 10 µM. It also gave a TGI (PC-3 prostate) of over 10 µM, a TGI (NCI-H23 lung) of over 10 µM and a TGI (RXF 393 renal) of over 10 µM. The TGI (M14 melanoma) was over 10 µM, the TGI (A549 NSCLC) was over 10 µM and the TGI (SK-MEL-5 melanoma) was over 10 µM. The TGI (SF-295 CNS) was over 10 µM, the TGI (HT29 colon) was over 10 µM and the TGI (LOX IMVI melanoma) was over 10 µM. For the same molecule, the TGI (OVCAR-5 ovarian) was over 10 µM, the TGI (SN12C renal) was over 10 µM and the TGI (IGROV1 ovarian) was over 10 µM. For the same molecule, the TGI (A498 renal) was over 10 µM, the TGI (SR leukemia) was over 10 µM and the TGI (NCI-H522 lung) was over 10 µM. For the same molecule, the TGI (HS 578T breast) was over 10 µM, the TGI (TK-10 renal) was over 10 µM and the TGI (SNB-75 CNS) was over 10 µM. It also gave a TGI (HCT-116 colon) of over 10 µM, a TGI (NCI-H226 lung) of over 10 µM and a TGI (KM12 colon) of over 10 µM. The TGI (OVCAR-3 ovarian) was over 10 µM, the TGI (T-47D breast) was over 10 µM and the TGI (ACHN renal) was over 10 µM. It also gave a TGI (SK-MEL-28 melanoma) of over 10 µM, a TGI (OVCAR-4 ovarian) of over 10 µM and a TGI (HCT-15 colon) of over 10 µM. For the same molecule, the TGI (SW-620 colon) was over 10 µM, the TGI (EKVX NSCLC) was over 10 µM and the TGI (SF-539 CNS) was over 10 µM. It also gave a TGI (NCI/ADR-RES ovarian) of over 10 µM, a TGI (DU-145 prostate) of over 10 µM and a TGI (CCRF-CEM leukemia) of over 10 µM. It also gave a TGI (MDA-N) of over 10 µM, a TGI (HCC-2998 colon) of over 10 µM and a TGI (K-562 leukemia) of over 10 µM. For the same molecule, the TGI (SK-MEL-2 melanoma) was over 10 µM.
